One experiment concerns WT HBV. As to the kind of experiment: RNA launch method: inhibition of HBV replication from transfected pgRNA, read out as percent HBsAg (CLIA). The format is cell-based. Conditions: HBsAg with vs without inhibitor, FIG. 4. The method, then:
The inhibitory effect of three reverse-transcriptase inhibitors, Entecavir (ETV), Tenofovir Disoproxil Fumarate (TDF), and Lamivudine (LAM) on WT HBV was compared. The inhibitory effect of LAM on the HBV viral variant M204V was also measured. The inhibition by the reverse-transcriptase inhibitors was determined as percent HBsAg by comparing the level of HBsAg in the presence and absence of the inhibitors.
HepG2-NTCP or Huh-7.5-NTCP cells were seeded at 2.5×10^5 cells per well in six-well plates two days before transfection. The media was changed to 2 ml DMEM containing 1.5% FBS and 0.1 mM NEAA just before transfection. […]
HBeAg and HBsAg were quantified using a chemiluminescence immunoassay (CLIA) kit (Autobio Diagnostics Co., Zhengzhou, China) according to the manufacturer's instructions. To quantify HBV DNA, total DNA was extracted from infected or RNA-transfected cells using QIAamp DNA Blood Mini Kit (Qiagen, cat. #51106) and HBV DNA was detected by qPCR as previously described (Michalidis et al., Sci Rep. 2017, November 30:7(1):16616). For each experiment, cells were transfected with T7-RFP as a negative control and DNA quantified from these cells was used to define the background. […]

A further experiment concerns chronic HBV. Conditions: chronically infected patients, injectable; cited from earlier work.

Structures can show the parent of a compound that is named as a salt.

Consider three molecules from patent US20210380951A1, “RNA-BASED METHODS TO LAUNCH HEPATITIS B VIRUS INFECTION” (priority 2018, published 2021).

Turning to `C=C1[C@H](CO)[C@@H](O)C[C@@H]1n1cnc2c(=O)[nH]c(N)nc21` [Entecavir], the “inhibitory effect on WT HBV (HBV replication, percent HBsAg)” value in the experiment with WT HBV is reported as “inhibited HBV replication in a dose-dependent manner”. `CC(C)OC(=O)OCOP(=O)(CO[C@H](C)Cn1cnc2c(N)ncnc21)OCOC(=O)OC(C)C` [Tenofovir Disoproxil Fumarate]: the “inhibitory effect on WT HBV (HBV replication, percent HBsAg)” value in the experiment on WT HBV is on record as “inhibited HBV replication in a dose-dependent manner”.

For the molecule interferon alpha [IFNα], in the experiment with chronic HBV, the “success rate of curing chronic HBV” value was approximately 10%.
